Assay results reported in PubChem BioAssay (NCI).
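Test compounds were applied to cells in 96-well plates for 48 hours at 5 doses. Definition used: TGI = concentration required for complete inhibition of growth.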

Experiments:
Test in all cases: growth of human tumour cells (NCI), 48 h
[1] = tested on: SK-MEL-2 melanoma
[2] = tested on: RPMI-8226 leukemia
[3] = tested on: SK-OV-3 ovarian
[4] = tested on: LOX IMVI melanoma
[5] = tested on: SK-MEL-5 melanoma
[6] = tested on: OVCAR-8 ovarian
[7] = tested on: K-562 leukemia
[8] = tested on: KM20L2 colon
[9] = tested on: HOP-62 NSCLC
[10] = tested on: MALME-3M melanoma
[11] = tested on: A549 NSCLC
[12] = tested on: RXF 393 renal
[13] = tested on: SNB-75 CNS
[14] = tested on: UO-31 renal
[15] = tested on: DMS 273 small cell lung
[16] = tested on: SN12C renal
[17] = tested on: UACC-257 melanoma
[18] = tested on: SF-268 CNS
[19] = tested on: NCI-H460 lung
[20] = tested on: HOP-18 NSCLC
[21] = tested on: M19-MEL melanoma
[22] = tested on: TK-10 renal
[23] = tested on: NCI-H522 lung
[24] = tested on: KM12 colon
[25] = tested on: DMS 114 small cell lung
[26] = tested on: HOP-92 NSCLC
[27] = tested on: 786-0 renal
[28] = tested on: SF-539 CNS
[29] = tested on: UACC-62 melanoma
[30] = tested on: COLO 205 colon
[31] = tested on: SNB-19 CNS
[32] = tested on: HT29 colon
[33] = tested on: CCRF-CEM leukemia
[34] = tested on: SF-295 CNS
[35] = tested on: MOLT-4 leukemia
[36] = tested on: RXF-631 renal
[37] = tested on: SR leukemia
[38] = tested on: IGROV1 ovarian
[39] = tested on: ACHN renal
[40] = tested on: U251 CNS
[41] = tested on: HCT-15 colon
[42] = tested on: SNB-78 CNS
[43] = tested on: OVCAR-5 ovarian
[44] = tested on: HCC-2998 colon
[45] = tested on: A498 renal
[46] = tested on: LXFL 529 NSCLC
[47] = tested on: SW-620 colon
[48] = tested on: M14 melanoma
[49] = tested on: OVCAR-4 ovarian
[50] = tested on: CAKI-1 renal
[51] = tested on: DLD-1 colon
[52] = tested on: HL-60(TB) leukemia
[53] = tested on: EKVX NSCLC
[54] = tested on: OVCAR-3 ovarian
[55] = tested on: NCI-H23 lung
[56] = tested on: HCT-116 colon
[57] = tested on: SK-MEL-28 melanoma
[58] = tested on: NCI-H226 lung
[59] = tested on: XF 498 CNS

CC1(C)CC(=O)c2c(oc3cc(O)c(O)cc23)C1
TGI [1]: 76.8 µM | TGI [2]: 80.4 µM | TGI [3]: > 100 µM | TGI [4]: 31.4 µM | TGI [5]: 32.5 µM | TGI [6]: 55.6 µM | TGI [7]: > 100 µM | TGI [8]: > 100 µM | TGI [9]: > 100 µM | TGI [10]: 94.6 µM | TGI [11]: > 100 µM | TGI [12]: > 100 µM | TGI [13]: > 100 µM | TGI [14]: > 100 µM | TGI [15]: > 100 µM | TGI [16]: > 100 µM | TGI [17]: > 100 µM | TGI [18]: > 100 µM | TGI [19]: 85 µM | TGI [20]: > 100 µM | TGI [21]: > 100 µM | TGI [22]: > 100 µM | TGI [23]: 24.3 µM | TGI [24]: 77.4 µM | TGI [25]: 32.5 µM | TGI [26]: 95.2 µM | TGI [27]: > 100 µM | TGI [28]: > 100 µM | TGI [29]: 32 µM | TGI [30]: > 100 µM | TGI [31]: > 100 µM | TGI [32]: > 100 µM | TGI [33]: 92 µM | TGI [34]: > 100 µM | TGI [35]: > 100 µM | TGI [36]: > 100 µM | TGI [37]: > 100 µM | TGI [38]: > 100 µM | TGI [39]: > 100 µM | TGI [40]: > 100 µM | TGI [41]: > 100 µM | TGI [42]: > 100 µM | TGI [43]: 56.9 µM | TGI [44]: > 100 µM | TGI [45]: > 100 µM | TGI [46]: 91.8 µM | TGI [47]: 37.2 µM | TGI [48]: 53.9 µM | TGI [49]: 43.4 µM | TGI [50]: 76.6 µM | TGI [51]: 53.9 µM | TGI [52]: 48.5 µM

CC1(C)OC(COCCOCCCCCO)C(COCCOCCCCCO)O1 (stereo not drawn)
TGI [1]: > 100 µM | TGI [2]: > 100 µM | TGI [3]: > 100 µM | TGI [4]: > 100 µM | TGI [5]: > 100 µM | TGI [6]: > 100 µM | TGI [7]: > 100 µM | TGI [53]: > 100 µM | TGI [54]: > 100 µM | TGI [55]: > 100 µM | TGI [8]: > 100 µM | TGI [9]: > 100 µM | TGI [10]: > 100 µM | TGI [11]: > 100 µM | TGI [12]: > 100 µM | TGI [13]: > 100 µM | TGI [14]: > 100 µM | TGI [56]: > 100 µM | TGI [15]: > 100 µM | TGI [16]: > 100 µM | TGI [17]: > 100 µM | TGI [18]: > 100 µM | TGI [19]: > 100 µM | TGI [20]: > 100 µM | TGI [21]: > 100 µM | TGI [22]: > 100 µM | TGI [23]: > 100 µM | TGI [57]: > 100 µM | TGI [24]: > 100 µM | TGI [25]: > 100 µM | TGI [27]: > 100 µM | TGI [29]: > 100 µM | TGI [30]: > 100 µM | TGI [31]: > 100 µM | TGI [32]: > 100 µM | TGI [34]: > 100 µM | TGI [35]: > 100 µM | TGI [36]: > 100 µM | TGI [37]: > 100 µM | TGI [38]: > 100 µM | TGI [39]: > 100 µM | TGI [40]: > 100 µM | TGI [41]: > 100 µM | TGI [42]: > 100 µM | TGI [43]: > 100 µM | TGI [44]: > 100 µM | TGI [45]: > 100 µM | TGI [46]: > 100 µM | TGI [47]: > 100 µM | TGI [48]: > 100 µM | TGI [49]: > 100 µM | TGI [58]: > 100 µM | TGI [50]: > 100 µM | TGI [51]: > 100 µM

COC(=O)CC(NC(=O)OCc1ccccc1)C(C(=O)OCc1ccccc1)C1(C)OCCO1 (stereo not drawn)
TGI [1]: 43.8 µM | TGI [2]: 73.7 µM | TGI [4]: > 100 µM | TGI [5]: 32.7 µM | TGI [6]: > 100 µM | TGI [7]: > 100 µM | TGI [53]: > 100 µM | TGI [54]: > 100 µM | TGI [55]: > 100 µM | TGI [8]: > 100 µM | TGI [9]: > 100 µM | TGI [10]: > 100 µM | TGI [11]: > 100 µM | TGI [12]: > 100 µM | TGI [13]: 73.2 µM | TGI [14]: 61.1 µM | TGI [56]: > 100 µM | TGI [15]: > 100 µM | TGI [16]: > 100 µM | TGI [17]: > 100 µM | TGI [18]: > 100 µM | TGI [19]: > 100 µM | TGI [21]: > 100 µM | TGI [22]: > 100 µM | TGI [57]: > 100 µM | TGI [25]: 82.6 µM | TGI [27]: > 100 µM | TGI [28]: > 100 µM | TGI [29]: 59.7 µM | TGI [30]: 36.5 µM | TGI [31]: > 100 µM | TGI [32]: > 100 µM | TGI [33]: > 100 µM | TGI [34]: > 100 µM | TGI [35]: 57.3 µM | TGI [36]: > 100 µM | TGI [37]: 58.2 µM | TGI [38]: > 100 µM | TGI [39]: > 100 µM | TGI [40]: > 100 µM | TGI [41]: > 100 µM | TGI [44]: > 100 µM | TGI [45]: > 100 µM | TGI [46]: 73 µM | TGI [47]: > 100 µM | TGI [48]: > 100 µM | TGI [49]: > 100 µM | TGI [58]: 94.1 µM | TGI [51]: > 100 µM | TGI [59]: 42.3 µM | TGI [52]: 62.6 µM

CC(=O)NC1=C(NCC(C)C)C(=O)c2ccccc2C1=O
TGI [1]: 67.8 µM | TGI [2]: > 100 µM | TGI [3]: > 100 µM | TGI [4]: 30.1 µM | TGI [5]: 43.6 µM | TGI [6]: 47.2 µM | TGI [7]: 36.7 µM | TGI [53]: 59.9 µM | TGI [54]: 32.4 µM | TGI [55]: 59.7 µM | TGI [8]: 43.9 µM | TGI [9]: > 100 µM | TGI [10]: 34.2 µM | TGI [11]: > 100 µM | TGI [12]: 25.4 µM | TGI [13]: 31.1 µM | TGI [14]: 34.4 µM | TGI [56]: 35.2 µM | TGI [15]: 30.7 µM | TGI [16]: 31.2 µM | TGI [17]: 36.4 µM | TGI [18]: 46.3 µM | TGI [19]: > 100 µM | TGI [20]: 29.5 µM | TGI [21]: 34.2 µM | TGI [22]: 40.9 µM | TGI [57]: 37.2 µM | TGI [24]: > 100 µM | TGI [25]: 31.7 µM | TGI [26]: 28.3 µM | TGI [27]: 31.9 µM | TGI [28]: 32.2 µM | TGI [29]: 34.7 µM | TGI [30]: > 100 µM | TGI [31]: > 100 µM | TGI [32]: > 100 µM | TGI [33]: 28.4 µM | TGI [34]: > 100 µM | TGI [35]: > 100 µM | TGI [38]: > 100 µM | TGI [39]: > 100 µM | TGI [40]: > 100 µM | TGI [41]: 33.7 µM | TGI [42]: 89.1 µM | TGI [43]: > 100 µM | TGI [44]: > 100 µM | TGI [45]: > 100 µM | TGI [46]: 34.4 µM | TGI [47]: 33.1 µM | TGI [48]: 33.2 µM | TGI [49]: > 100 µM | TGI [58]: 29.5 µM | TGI [50]: 30.6 µM | TGI [51]: 40.1 µM | TGI [59]: 27 µM | TGI [52]: 7.32 µM
